“Also recorded” adds a separate entry of the source. Where no end group is shown, it is not given here.
Legend:
vaginal muscle = test: Rabbit vaginal contraction in organ bath (force transducer); type: cell-based, New Zealand female rabbit
Protocol: The vagina of 12-week-old New Zealand female rabbit was removed, exiced to 1 cm length and immersed in 10 ml of capacity organ bath connected to an external reservoir of Krebs-Henseleit in constant temperature of 37° C. The solution was oxygenated (95%O2/[…]). The effect of VIP and SNV on vaginal contraction was measured by attaching the vaginal muscle to a force transducer.

cGMP formation = conditions: versus VIP; cited from earlier work
[1] = cited from earlier work
[2] = system: uterine smooth muscle activity and vaginal blood flow; conditions: systemic administration to females; cited from earlier work
penile erection = conditions: in the male; cited from earlier work

Row | Substance | effect on contraction force (inotropic effect) (vaginal muscle; 0.3 μM peptide, 0.5 μM phenylephrine, FIG. 2) | effect on rate of vaginal contraction (vaginal muscle; 0.3 μM peptide, contraction stimulated by 0.5 μM phenylephrine, FIG. 2) | effect on vaginal contraction at high concentration (vaginal muscle; 1.5 μM peptide (b76 prints 1.5 M), contraction stimulated by 0.5 μM phenylephrine, FIG. 3) | potency in enhancing cGMP formation relative to VIP (cGMP formation) [fold] | bioavailability [1] | effect on vaginal contraction (vaginal muscle; 0.3 μM peptide, preliminary results, FIG. 1) | uterine smooth muscle activity [2] | vaginal blood flow [2] | penile erection (penile erection)
1 | Stearoyl-norleucine^17-VIP [SNV] | reduced the contraction force | attenuated the rate of vaginal contraction | blocked vaginal contraction; also recorded: neutralized vaginal contraction | 1000 | increased stability and bioavailability |  |  |  | 
2 | vasoactive intestinal peptide (HSDAVFTDNYTRLRKQMAVKKYLNSILN; ends and bridges not checked; UniProt P01282 125-152, looked up) [VIP] |  |  |  |  |  | neutralized vaginal contraction | decrease uterine smooth muscle activity | increase vaginal blood flow | induces penile erection

Source: patent publication US20050075284A1, “Pharmaceutical compositions comprising vip-related peptides for the treatment of sexual disorders” (priority 2001, published 2005)
